Consider 27 molecules from patent US9951077B2, “Aminopyridazinone compounds as protein kinase inhibitors” (ETERNITY BIOSCIENCE INC., priority 2014, dated 2018).

Structures are written as SMILES.

In this assay the target is Btk (Homo sapiens (Human), UniProt Q06187). Briefly: Btk kinase assay (ADP-Glo). Conditions: ATP 1.2 μM, 60 minutes, room temperature; read-out: BTK enzyme IC50. In kind it is biochemical. The protocol: The Btk kinase assay was performed using a ADP-Glo Btk kinase assay kit purchased from Promega (Madison, Wis.). The assay was conducted according to the protocols provided in the assay kit. In brief, the enzyme reaction was carried out in the kinase reaction buffer containing Btk (2 ng/μl), ATP (1.2 μM), poly GT peptide (0.3 μM), DTT (40 nM), MnCl2 (1.4 mM), and 1×kinase buffer (included in the kit) in the presence or absence of the tested articles at various concentrations in 384-well plate at room temperature (22±1° C.) for 60 minutes. The final reaction volume for each reaction was 10 μl. Then, 4 μl of ADP-Glo reagent (included in the kit) was added into the reaction and the plate was further incubated for another 40 minutes to terminate the reaction and deplete the remaining ATP. Finally, 10 μl of the kinase detection reagent was added into each reaction to simultaneously convert ADP to ATP and allow the newly synthesized ATP to be measured by a plate-reading luminometer (Victor X5 2030 multilabel reader, PerkinElmer). IC50 value was calculated using appropriate programs in GraphPad Prism by plotting the logarithm of the concentration versus percent inhibition as compared with a vehicle (DMSO) control.
Chain of Btk (Q06187 whole entry): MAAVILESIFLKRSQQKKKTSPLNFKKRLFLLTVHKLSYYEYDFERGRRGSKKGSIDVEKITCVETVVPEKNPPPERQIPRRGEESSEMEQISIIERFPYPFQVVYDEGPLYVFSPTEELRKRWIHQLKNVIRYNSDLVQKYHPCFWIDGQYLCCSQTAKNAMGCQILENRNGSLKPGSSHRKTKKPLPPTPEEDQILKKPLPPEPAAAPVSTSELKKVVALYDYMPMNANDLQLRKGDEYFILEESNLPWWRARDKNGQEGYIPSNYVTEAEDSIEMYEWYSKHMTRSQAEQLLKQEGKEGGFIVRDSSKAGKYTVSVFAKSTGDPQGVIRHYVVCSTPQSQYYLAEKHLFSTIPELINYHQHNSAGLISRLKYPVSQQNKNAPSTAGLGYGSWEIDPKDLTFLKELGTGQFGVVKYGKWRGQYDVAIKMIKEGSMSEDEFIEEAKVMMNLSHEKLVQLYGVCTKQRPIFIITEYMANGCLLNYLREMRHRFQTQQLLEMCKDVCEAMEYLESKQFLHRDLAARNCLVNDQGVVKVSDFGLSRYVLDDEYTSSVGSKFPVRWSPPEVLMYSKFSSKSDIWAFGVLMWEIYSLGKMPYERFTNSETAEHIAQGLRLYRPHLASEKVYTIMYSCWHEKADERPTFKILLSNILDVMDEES
(In general: ADP-Glo turns the ADP formed in a reaction into a luminescent signal.)
For `CN(C)C/C=C/C(=O)N1CCCC(n2cc(-c3ccc(Oc4ccc(Cl)cc4)cc3)c3c(N)n[nH]c(=O)c32)C1` (stereo not drawn) [Example 65, 4-amino-3-[4-(4-chlorophenoxy)phenyl]-1-[1-[(E)-4-(dimethylamino)but-2-enoyl]-3-piperidyl]-6H-pyrrolo[2,3-d]pyridazin-7-one], the IC50 (usually the point on the concentration scale where inhibition reaches its midpoint) was in the range of 10 to 1000 nM.
The value for `C=CC(=O)N1CCCC(n2cc(-c3ccc(Oc4cccc(Cl)c4)cc3)c3c(N)n[nH]c(=O)c32)C1` (stereo not drawn) [Example 66, 1-(1-acryloylpiperidin-3-yl)-4-amino-3-(4-(3-chlorophenoxy)phenyl)-1H-pyrrolo[2,3-d]pyridazin-7(6H)-one] was 10 to 1000 nM; that for `CN(C)C/C=C/C(=O)N1CCCC(n2cc(-c3ccc(Oc4cccc(Cl)c4)cc3)c3c(N)n[nH]c(=O)c32)C1` (stereo not drawn) [Example 67, 4-amino-3-[4-(3-chlorophenoxy)phenyl]-1-[1-[(E)-4-(dimethylamino)but-2-enoyl]-3-piperidyl]-6H-pyrrolo[2,3-d]pyridazin-7-one] was ≤ 10 nM; that for `C=CC(=O)N1CCCC(n2cc(-c3ccc(Oc4cccc(Cl)c4)c(OC)c3)c3c(N)n[nH]c(=O)c32)C1` (stereo not drawn) [Example 68, 1-(1-acryloylpiperidin-3-yl)-4-amino-3-(4-(3-chlorophenoxy)-3-methoxyphenyl)-1H-pyrrolo[2,3-d]pyridazin-7(6H)-one] was 10 to 1000 nM.
The value for `COc1cc(-c2cn(C3CCCN(C(=O)/C=C/CN(C)C)C3)c3c(=O)[nH]nc(N)c23)ccc1Oc1cccc(Cl)c1` (stereo not drawn) [Example 69, 4-amino-3-[4-(3-chlorophenoxy)-3-methoxy-phenyl]-1-[1-[(E)-4-(dimethylamino)but-2-enoyl]-3-piperidyl]-6H-pyrrolo[2,3-d]pyridazin-7-one] was ≤ 10 nM.
Turning to `C=CC(=O)N1CCC[C@@H](n2cc(-c3ccc(Oc4ccccc4Cl)cc3)c3c(N)n[nH]c(=O)c32)C1` [Example 70, (R)-1-(1-acryloylpiperidin-3-yl)-4-amino-3-(4-(2-chlorophenoxy)phenyl)-1H-pyrrolo[2,3-d]pyridazin-7(6H)-one], the IC50 was in the range of 10 to 1000 nM.
In the case of `CN(C)C/C=C/C(=O)N1CCC[C@@H](n2cc(-c3ccc(Oc4ccccc4Cl)cc3)c3c(N)n[nH]c(=O)c32)C1` [Example 71, 4-amino-3-[4-(2-chlorophenoxy)phenyl]-1-[(3R)-1-[(E)-4-(dimethylamino)but-2-enoyl]-3-piperidyl]-6H-pyrrolo[2,3-d]pyridazin-7-one], the IC50 was ≤ 10 nM.
The value for `C=CC(=O)N1CCC[C@@H](n2cc(-c3ccc(Oc4ccc(Cl)c(Cl)c4)c(OC)c3)c3c(N)n[nH]c(=O)c32)C1` [Example 72, (R)-1-(1-acryloylpiperidin-3-yl)-4-amino-3-(4-(3,4-dichlorophenoxy)-3-methoxyphenyl)-1H-pyrrolo[2,3-d]pyridazin-7(6H)-one] was 10 to 1000 nM.
Take `COc1cc(-c2cn([C@@H]3CCCN(C(=O)/C=C/CN(C)C)C3)c3c(=O)[nH]nc(N)c23)ccc1Oc1ccc(Cl)c(Cl)c1` [Example 73, 4-amino-3-[4-(3,4-dichlorophenoxy)-3-methoxy-phenyl]-1-[(3R)-1-[(E)-4-(dimethylamino)but-2-enoyl]-3-piperidyl]-6H-pyrrolo[2,3-d]pyridazin-7-one]: the IC50 was 10 to 1000 nM.
As for `C=CC(=O)N1CCC[C@@H](n2cc(-c3ccc(Oc4ccccc4)c(F)c3)c3c(N)n[nH]c(=O)c32)C1` [Example 74, (R)-1-(1-acryloylpiperidin-3-yl)-4-amino-3-(3-fluoro-4-phenoxyphenyl)-1H-pyrrolo[2,3-d]pyridazin-7(6H)-one], the IC50 lay within 10 to 1000 nM.
Consider `CN(C)C/C=C/C(=O)N1CCC[C@@H](n2cc(-c3ccc(Oc4ccccc4)c(F)c3)c3c(N)n[nH]c(=O)c32)C1` [Example 75, 4-amino-1-[(3R)-1-[(E)-4-(dimethylamino)but-2-enoyl]-3-piperidyl]-3-(3-fluoro-4-phenoxy-phenyl)-6H-pyrrolo[2,3-d]pyridazin-7-one], for which the 50% inhibitory concentration (IC50) was ≤ 10 nM.
Turning to `C=CC(=O)N1CCC[C@@H](n2cc(-c3ccc(Oc4ccccc4)cc3F)c3c(N)n[nH]c(=O)c32)C1` [Example 76, (R)-1-(1-acryloylpiperidin-3-yl)-4-amino-3-(2-fluoro-4-phenoxyphenyl)-1H-pyrrolo[2,3-d]pyridazin-7(6H)-one], the IC50 was 10 to 1000 nM.
Take `CN(C)C/C=C/C(=O)N1CCC[C@@H](n2cc(-c3ccc(Oc4ccccc4)cc3F)c3c(N)n[nH]c(=O)c32)C1` [Example 77, 4-amino-1-[(3R)-1-[(E)-4-(dimethylamino)but-2-enoyl]-3-piperidyl]-3-(2-fluoro-4-phenoxy-phenyl)-6H-pyrrolo[2,3-d]pyridazin-7-one]: the IC50 is ≤ 10 nM.
The value for `C=CC(=O)N1CCC[C@@H](n2cc(-c3ccc(Oc4c(F)cccc4Cl)cc3)c3c(N)n[nH]c(=O)c32)C1` [Example 78, (R)-1-(1-acryloylpiperidin-3-yl)-4-amino-3-(4-(2-chloro-6-fluorophenoxy)phenyl)-1H-pyrrolo[2,3-d]pyridazin-7(6H)-one] was ≤ 10 nM; that for `CN(C)C/C=C/C(=O)N1CCC[C@@H](n2cc(-c3ccc(Oc4c(F)cccc4Cl)cc3)c3c(N)n[nH]c(=O)c32)C1` [Example 79, 4-amino-3-[4-(2-chloro-6-fluoro-phenoxy)phenyl]-1-[(3R)-1-[(E)-4-(dimethylamino)but-2-enoyl]-3-piperidyl]-6H-pyrrolo[2,3-d]pyridazin-7-one] was ≤ 10 nM; that for `C=CC(=O)N1CCC[C@@H](n2c(Cl)c(-c3ccc(Oc4ccccc4)cc3)c3c(N)n[nH]c(=O)c32)C1` [Example 80, (R)-1-(1-acryloylpiperidin-3-yl)-4-amino-2-chloro-3-(4-phenoxyphenyl)-1H-pyrrolo[2,3-d]pyridazin-7(6H)-one] was 10 to 1000 nM.
Regarding `C=CC(=O)N1CCC[C@@H](n2c(F)c(-c3ccc(Oc4ccccc4)cc3)c3c(N)n[nH]c(=O)c32)C1` [Example 81, (R)-1-(1-acryloylpiperidin-3-yl)-4-amino-2-fluoro-3-(4-phenoxyphenyl)-1H-pyrrolo[2,3-d]pyridazin-7(6H)-one], the half-maximal inhibitory concentration (IC50) lay in the range of 10 to 1000 nM.
`CN(C)C/C=C/C(=O)N1CCC[C@@H](n2c(F)c(-c3ccc(Oc4ccccc4)cc3)c3c(N)n[nH]c(=O)c32)C1` [Example 82, 4-amino-1-[(3R)-1-[(E)-4-(dimethylamino)but-2-enoyl]-3-piperidyl]-2-fluoro-3-(4-phenoxyphenyl)-6H-pyrrolo[2,3-d]pyridazin-7-one]: the IC50 is ≤ 10 nM.
Regarding `C=CC(=O)N1CCC[C@@H](n2c(Cl)c(-c3ccc(Oc4ccccc4F)cc3)c3c(N)n[nH]c(=O)c32)C1` [Example 83, (R)-1-(1-acryloylpiperidin-3-yl)-4-amino-2-chloro-3-(4-(2-fluorophenoxy)phenyl)-1H-pyrrolo[2,3-d]pyridazin-7(6H)-one], the IC50 is 1000 to 100000 nM.
With `N#CN1CCC[C@@H](n2cc(-c3ccc(Oc4c(F)cccc4F)cc3)c3c(N)n[nH]c(=O)c32)C1` [Example 84, (R)-3-(4-amino-3-(4-(2,6-difluorophenoxy)phenyl)-7-oxo-6,7-dihydro-1H-pyrrolo[2,3-d]pyridazin-1-yl)piperidine-1-carbonitrile], the IC50 lay in the range of 10 to 1000 nM.
The value for `N#CN1CCC[C@@H](n2cc(-c3ccc(Oc4ccccc4)c(F)c3)c3c(N)n[nH]c(=O)c32)C1` [Example 85, (R)-3-(4-amino-3-(3-fluoro-4-phenoxyphenyl)-7-oxo-6,7-dihydro-1H-pyrrolo[2,3-d]pyridazin-1-yl)piperidine-1-carbonitrile] was 10 to 1000 nM.
The value for `N#CN1CCC[C@@H](n2c(Cl)c(-c3ccc(Oc4ccccc4F)cc3)c3c(N)n[nH]c(=O)c32)C1` [Example 86, (R)-3-(4-amino-2-chloro-3-(4-(2-fluorophenoxy)phenyl)-7-oxo-6,7-dihydro-1H-pyrrolo[2,3-d]pyridazin-1-yl)piperidine-1-carbonitrile] was 1000 to 100000 nM; that for `N#CN1CCC[C@@H](n2cc(-c3ccc(Oc4ccccc4F)cc3)c3c(N)n[nH]c(=O)c32)C1` [Example 87, (R)-3-(4-amino-3-(4-(2-fluorophenoxy)phenyl)-7-oxo-6,7-dihydro-1H-pyrrolo[2,3-d]pyridazin-1-yl)piperidine-1-carbonitrile] was ≤ 10 nM.
The value for `C=CC(=O)Nc1cccc(-n2cc(-c3ccc(Oc4ccccc4)cc3)c3c(N)n[nH]c(=O)c32)c1` [Example 88, N-(3-(4-amino-7-oxo-3-(4-phenoxyphenyl)-6,7-dihydro-1H-pyrrolo[2,3-d]pyridazin-1-yl)phenyl)acrylamide] was ≤ 10 nM; that for `C=CC(=O)Nc1cccc(-n2cc(-c3ccc(OC)c(Cl)c3)c3c(N)n[nH]c(=O)c32)c1` [Example 89, N-(3-(4-amino-3-(3-chloro-4-methoxyphenyl)-7-oxo-6,7-dihydro-1H-pyrrolo[2,3-d]pyridazin-1-yl)phenyl)acrylamide] was 10 to 1000 nM; that for `C=CC(=O)Nc1ccc(-n2cc(-c3ccc(Oc4ccccc4)cc3)c3c(N)n[nH]c(=O)c32)cc1` [Example 90, N-(4-(4-amino-7-oxo-3-(4-phenoxyphenyl)-6,7-dihydro-1H-pyrrolo[2,3-d]pyridazin-1-yl)phenyl)acrylamide] was 10 to 1000 nM.
On to `C=CC(=O)Nc1cccc(-n2cc(-c3ccc(Oc4ccccc4F)cc3)c3c(N)n[nH]c(=O)c32)c1` [Example 91, N-(3-(4-amino-3-(4-(2-fluorophenoxy)phenyl)-7-oxo-6,7-dihydro-1H-pyrrolo[2,3-d]pyridazin-1-yl)phenyl)acrylamide], for which the IC50 was 10 to 1000 nM.
